Experimental findings from patent US20230382868A1 (priority 2022, published 2023) are described below.

Read-outs that look alike come from different tables or passages of the source.

Assay [1] concerns the target hBChE (Homo sapiens, UniProt P06276). Kind of assay: biochemical. Format: biochemical.
Assay [2] deals with T1, hMAO-B (Homo sapiens, UniProt P27338).
T1 construct: purchased Sigma Aldrich; host or cells: BTI-TN-5B1-4 insect cells
T1 sequence (P27338 1-520): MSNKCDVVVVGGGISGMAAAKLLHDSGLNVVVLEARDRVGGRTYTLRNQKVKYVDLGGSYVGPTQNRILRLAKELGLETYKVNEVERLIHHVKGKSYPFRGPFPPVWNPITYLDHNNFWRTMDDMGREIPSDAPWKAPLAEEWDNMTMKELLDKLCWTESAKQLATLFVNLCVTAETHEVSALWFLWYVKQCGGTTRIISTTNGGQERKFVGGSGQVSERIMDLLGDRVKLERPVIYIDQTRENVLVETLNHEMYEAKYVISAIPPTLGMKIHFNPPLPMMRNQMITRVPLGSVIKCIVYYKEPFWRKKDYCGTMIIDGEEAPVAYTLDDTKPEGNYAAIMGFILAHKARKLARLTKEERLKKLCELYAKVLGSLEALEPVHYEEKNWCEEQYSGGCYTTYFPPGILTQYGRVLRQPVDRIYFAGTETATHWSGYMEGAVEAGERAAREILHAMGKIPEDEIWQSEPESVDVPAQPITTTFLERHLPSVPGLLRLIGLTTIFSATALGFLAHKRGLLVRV
Format: biochemical. Particulars: read-out: IC50 ± SEM hMAO-B.

Assay [3] can be described thus: DPPH radical-scavenging assay. The conditions noted are these: read-out: free-radical scavenging potency EC50 ± SEM (concentration that scavenged 50% of the DPPH free radicals); DPPH in MeOH, 90 min, room temperature, dark. As for the experimental part: Free-radical scavenging potency was evaluated using the DPPH assay. […] The microtiter plate was incubated at room temperature in the dark for 90 min. The absorbance at 517 nm was then determined with a microplate reader (Synergy HT; BioTek Instruments, Inc., VT, USA). The experiments were performed in triplicate, with subtraction of the blank value (compound without DPPH). The percentages of DPPH free radicals were calculated as DPPH free radical (%)=[(A0−A1)/A0]×100, where A0 is the absorbance of the negative control, and A1 is the absorbance of the test sample. […] Resveratrol and Trolox were used as the positive controls under the same assay conditions.

Assay [4] in a line: Metal-chelating properties (UV-Vis spectra, Cu2+ titration, Yoe-Jones method). Format: physicochemical. The conditions noted are these: 30 μM compound; for interception point of Cu2+ titration (Yoe-Jones method): 0-150 μM Cu2+, Cu2+/compound molar ratio; for change in absorption spectra on addition of Fe2+ and Fe3+ / change in absorption spectra with Ca2+ and Mg2+: equimolar metal ion, HEPES buffer pH 7.4. As for the experimental part:
The chelation properties were determined in HEPES buffer (20 mM, 150 mM NaCl, pH 7.4) using a 96-well microplate reader (Synergy HT; BioTek Instruments, Inc., VT, USA). To determine the chelation of the metal ions by the compounds, 30 μM compound solution was treated with equimolar concentrations of CuCl2, ZnCl2, CoCl2, MgCl2, CaCl2, FeCl2, FeCl3, and AlCl3. To prevent oxidation of Fe^2+, the solution of FeCl2 was prepared in the presence of 1 mM ascorbic acid. The absorption spectra were recorded after 30 min incubation at room temperature. The chelation was detected by the change in the absorption spectra, which was specific for each metal ion. The Cu^2+ binding stoichiometry was resolved by titration of a 30 μM buffered solution of the compounds with additions of CuCl2 buffered stock solution. […] The absorbance differences in the absence and presence of Cu^2+ were plotted against the Cu^2+/compound molar ratio.

Assay [5] deals with hAChE (Homo sapiens, UniProt P22303). Kind of assay: Inhibition of cholinesterases (Ellman method). Format: biochemical. Particulars: n.a. = not active (residual activity at 100 μM ≥50%); three independent experiments; read-out: IC50 ± SEM hAChE. A general note: In Ellman's method for cholinesterases, released thiocholine reacts with DTNB.
Sequence of hAChE (P22303 32-614): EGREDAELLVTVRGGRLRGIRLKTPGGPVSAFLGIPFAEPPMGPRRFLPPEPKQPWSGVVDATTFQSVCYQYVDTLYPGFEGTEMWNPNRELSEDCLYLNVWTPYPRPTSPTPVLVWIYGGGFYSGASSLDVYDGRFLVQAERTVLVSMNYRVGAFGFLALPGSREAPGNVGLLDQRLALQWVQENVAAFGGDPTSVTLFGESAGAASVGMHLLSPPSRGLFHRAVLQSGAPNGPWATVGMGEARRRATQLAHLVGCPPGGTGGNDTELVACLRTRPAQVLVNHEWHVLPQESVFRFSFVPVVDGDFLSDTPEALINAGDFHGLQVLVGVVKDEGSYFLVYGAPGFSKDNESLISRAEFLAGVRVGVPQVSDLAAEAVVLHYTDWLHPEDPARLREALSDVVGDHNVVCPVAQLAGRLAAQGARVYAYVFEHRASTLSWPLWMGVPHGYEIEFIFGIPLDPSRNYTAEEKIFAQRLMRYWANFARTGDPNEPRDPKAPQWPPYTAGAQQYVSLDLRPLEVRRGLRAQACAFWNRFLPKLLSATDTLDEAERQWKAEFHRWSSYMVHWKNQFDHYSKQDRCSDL
Assay [6] can be described thus: Antioxidant capacity against hydroxyl radicals. Particulars: statement in words, no method given.
For assay [7], the system named is primary cultured neurons. Kind of assay: Neuroprotection of primary cultured neurons after experimental ischemia. Particulars: statement in words, no method given. Format: cell-based.
Where [8] appears, read: HEPES buffer pH 7.4, 30 min, room temperature.

Sequence of hBChE (P06276 29-602): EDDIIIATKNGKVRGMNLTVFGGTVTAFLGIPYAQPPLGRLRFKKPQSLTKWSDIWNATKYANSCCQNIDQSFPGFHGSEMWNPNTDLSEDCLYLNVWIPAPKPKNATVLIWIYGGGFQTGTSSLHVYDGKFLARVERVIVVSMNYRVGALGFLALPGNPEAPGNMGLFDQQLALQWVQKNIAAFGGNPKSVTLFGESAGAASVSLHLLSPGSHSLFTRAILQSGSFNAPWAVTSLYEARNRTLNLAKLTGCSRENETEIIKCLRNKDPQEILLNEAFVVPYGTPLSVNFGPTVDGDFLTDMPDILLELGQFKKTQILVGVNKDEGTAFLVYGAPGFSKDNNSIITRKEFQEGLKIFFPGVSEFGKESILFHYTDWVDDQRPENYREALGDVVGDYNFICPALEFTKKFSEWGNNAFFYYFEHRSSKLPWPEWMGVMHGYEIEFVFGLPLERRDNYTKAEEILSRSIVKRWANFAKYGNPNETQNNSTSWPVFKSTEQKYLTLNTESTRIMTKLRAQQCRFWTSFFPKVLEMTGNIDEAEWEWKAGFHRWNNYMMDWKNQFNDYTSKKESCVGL

What is called IC50 is the point on the concentration scale where inhibition reaches its midpoint. Turning to `CC(C)(C)/[N+]([O-])=C/c1ccc2cccc(OCCCN3CCCCC3)c2n1` [Compound 3, (Z)-N-tert-Butyl-1-(8-(3-(piperidin-1-yl)propoxy)quinolin-2-yl)methanimine oxide], the IC50 in assay [1] (read-out: IC50 ± SEM hBChE) is 25.4 ± 2.1 nM.

`[O-]/[N+](=C\c1ccc2cccc(OCCCN3CCCCC3)c2n1)Cc1ccccc1` [Compound 4, (Z)-N-Benzyl-1-(8-(3-(piperidin-1-yl)propoxy)quinolin-2-yl)methanimine oxide] came in with an IC50 in assay [1] of 76.9 ± 6.3 nM.

For the compound `C#CCN1CCN(CCCOc2cccc3ccc(/C=[N+](\[O-])C(C)(C)C)nc23)CC1` [Compound 7, (Z)-N-tert-Butyl-1-(8-(3-(4-(prop-2-yn-1-yl)piperazin-1-yl)propoxy)quinolin-2-yl)methanimine oxide], the IC50 in assay [1] (read-out: IC50 ± SEM hBChE) was 7.3 ± 1.1 nM.

In turn, `C#CCN1CCN(CCCOc2cccc3ccc(/C=[N+](\[O-])Cc4ccccc4)nc23)CC1` [Compound 8, (Z)-N-Benzyl-1-(8-(3-(4-(prop-2-yn-1-yl)piperazin-1-yl)propoxy)quinolin-2-yl)methanimine oxide] registered an IC50 in assay [1] of 31 ± 6.4 nM.

`C/[N+]([O-])=C/c1ccc2cccc(O)c2n1` [Compound 9, (Z)-1-(8-Hydroxyquinolin-2-yl)-N-methylmethanimine oxide]: the IC50 in assay [2] turned out to be 10.1 ± 2.5 µM.

For the compound `CC(C)(C)/[N+]([O-])=C/c1ccc2cccc(O)c2n1` [Compound 10, (Z)-N-tert-butyl-1-(8-hydroxyquinolin-2-yl)methanimine oxide], the IC50 in assay [2] worked out at 16.4 ± 1 µM. Further, the IC50 in assay [1] (read-out: IC50 ± SEM hBChE) was 5.1 ± 0.6 nM. Besides, the EC50 in assay [3] is 119 ± 1.2 µM. Further, in assay [4], the “interception point of Cu2+ titration (Yoe-Jones method)” value was 0.5; the “change in absorption spectra on addition of Fe2+ and Fe3+” value is listed as “hyperchromic shift”; the “change in absorption spectra with Ca2+ and Mg2+” value is “no major changes in absorption spectra”. Besides, in assay [4] (setting [8]), the “new absorption maximum with equimolar Al3+ (bathochromic shift)” value is on record as 296 nm, the “new absorption maximum with equimolar Cu2+ (bathochromic shift)” value is 310 nm and the “new absorption maximum with equimolar Zn2+ (bathochromic shift)” value was 309 nm.

For `[O-]/[N+](=C\c1ccc2cccc(O)c2n1)Cc1ccccc1` [Compound 11, (Z)-N-Benzyl-1-(8-hydroxyquinolin-2-yl)methanimine oxide], the IC50 in assay [5] came out at 29 ± 3 nM. The compound also had an IC50 in assay [1] of no more than 1.1 nM. In assay [6], the “antioxidant capacity against hydroxyl radicals” value was “striking antioxidant capacity”. Also, the EC50 in assay [3] stood at 126 ± 0.1 µM. Moreover, in assay [7], the “neuroprotection of primary cultured neurons after experimental ischemia” value is recorded as “remarkable activity for neuroprotection”. Further, in assay [4], the “interception point of Cu2+ titration (Yoe-Jones method)” value is recorded as 0.5; the “change in absorption spectra on addition of Fe2+ and Fe3+” value is “hypochromic change in absorbance spectra”; the “change in absorption spectra with Ca2+ and Mg2+” value is given as “no major alterations in spectra”.
